Measured values as given in ChEMBL document CHEMBL3792297, “Studies on phenothiazines: New microtubule-interacting compounds with phenothiazine A-ring as potent antineoplastic agents” (Bioorg Med Chem, 2016).

Columns and labels:
[1] = Growth inhibition of human SF268 cells at 10 uM after 48 hrs by SRB assay relative to control; type: functional; details: SF-268, 48 h, read-out: GI
[2] = Growth inhibition of human RXF393 cells at 10 uM after 48 hrs by SRB assay relative to control; type: functional; details: RXF 393, 48 h, read-out: GI
[3] = Growth inhibition of human HCT15 cells at 10 uM after 48 hrs by SRB assay relative to control; type: functional; details: HCT-15, 48 h, read-out: GI
[4] = Growth inhibition of human SF539 cells at 10 uM after 48 hrs by SRB assay relative to control; type: functional; details: SF-539, 48 h, read-out: GI
[5] = Growth inhibition of human OVCAR4 cells at 10 uM after 48 hrs by SRB assay relative to control; type: functional; details: OVCAR-4, 48 h, read-out: GI
[6] = Growth inhibition of human SW620 cells at 10 uM after 48 hrs by SRB assay relative to control; type: functional; details: SW-620, 48 h, read-out: GI
SR = test: Growth inhibition of human SR cells at 10 uM after 48 hrs by SRB assay relative to control; type: functional; details: read-out: GI
[7] = Growth inhibition of human NCI-ADR-RES cells at 10 uM after 48 hrs by SRB assay relative to control; type: functional; details: read-out: GI
[8] = Growth inhibition of human HL-60(TB) cells at 10 uM after 48 hrs by SRB assay relative to control; type: functional; details: HL-60, 48 h, read-out: GI
A498 = test: Growth inhibition of human A498 cells at 10 uM after 48 hrs by SRB assay relative to control; type: functional; details: A498, 48 h, read-out: GI
SK-MEL-5 [9] = test: Growth inhibition of human SK-MEL-5 cells at 10 uM after 48 hrs by SRB assay relative to control; type: functional; details: SK-MEL-5, 48 h, read-out: GI
KM12 = test: Growth inhibition of human KM12 cells at 10 uM after 48 hrs by SRB assay relative to control; type: functional; details: KM12, 48 h, read-out: GI
CCRF-CEM [10] = test: Growth inhibition of human CCRF-CEM cells at 10 uM after 48 hrs by SRB assay relative to control; type: functional; details: read-out: GI
SN12C [11] = test: Growth inhibition of human SN12C cells at 10 uM after 48 hrs by SRB assay relative to control; type: functional; details: read-out: GI
HT-29 = test: Growth inhibition of human HT-29 cells at 10 uM after 48 hrs by SRB assay relative to control; type: functional; details: HT-29, 48 h, read-out: GI
[12] = Growth inhibition of human UACC257 cells at 10 uM after 48 hrs by SRB assay relative to control; type: functional; details: UACC-257, 48 h, read-out: GI
[13] = Growth inhibition of human SNB75 cells at 10 uM after 48 hrs by SRB assay relative to control; type: functional; details: SNB-75, 48 h, read-out: GI
[14] = Growth inhibition of human TK10 cells at 10 uM after 48 hrs by SRB assay relative to control; type: functional; details: TK-10, 48 h, read-out: GI
[15] = Growth inhibition of human MOLT4 cells at 10 uM after 48 hrs by SRB assay relative to control; type: functional; details: MOLT-4, 48 h, read-out: GI
[16] = Growth inhibition of human Hs 578T cells at 10 uM after 48 hrs by SRB assay relative to control; type: functional; details: read-out: GI
Malme-3M = test: Growth inhibition of human MALME-3M cells at 10 uM after 48 hrs by SRB assay relative to control; type: functional; details: read-out: GI
Ovis aries = species on record: Ovis aries; test: Inhibition of sheep brain tubulin polymerization at 100 uM by DAPI staining-based fluorimetric method
MDA-MB-231 = test: Growth inhibition of human MDA-MB-231 cells at 10 uM after 48 hrs by SRB assay relative to control; type: functional; details: MDA-MB-231, 48 h, read-out: GI
[17] = Growth inhibition of human SNB75 cells after 48 hrs by SRB assay; type: functional; details: SNB-75, 48 h
[18] = Growth inhibition of human UACC62 cells after 48 hrs by SRB assay; type: functional; details: UACC-62, 48 h
U-251 = test: Growth inhibition of human U251 cells after 48 hrs by SRB assay; type: functional; details: U-251, 48 h
SK-MEL-5 [19] = test: Growth inhibition of human SK-MEL-5 cells after 48 hrs by SRB assay; type: functional; details: SK-MEL-5, 48 h
[20] = Growth inhibition of human HOP92 cells after 48 hrs by SRB assay; type: functional; details: HOP-92, 48 h
[21] = Growth inhibition of human SKOV3 cells after 48 hrs by SRB assay; type: functional; details: SK-OV-3, 48 h
MDA-MB-468 = test: Growth inhibition of human MDA-MB-468 cells after 48 hrs by SRB assay; type: functional; details: MDA-MB-468, 48 h
[22] = Growth inhibition of human HCC2998 cells after 48 hrs by SRB assay; type: functional; details: HCC 2998, 48 h
SN12C [23] = test: Growth inhibition of human SN12C cells after 48 hrs by SRB assay; type: functional
[24] = Growth inhibition of human MOLT4 cells after 48 hrs by SRB assay; type: functional; details: MOLT-4, 48 h
[25] = Growth inhibition of human COLO205 cells after 48 hrs by SRB assay; type: functional; details: COLO 205, 48 h
[26] = Growth inhibition of human RPMI8226 cells after 48 hrs by SRB assay; type: functional; details: RPMI-8226, 48 h
K562 = test: Growth inhibition of human K562 cells after 48 hrs by SRB assay; type: functional; details: K562, 48 h
NCI-H460 = test: Growth inhibition of human NCI-H460 cells after 48 hrs by SRB assay; type: functional; details: NCI-H460, 48 h
[27] = Growth inhibition of human OVCAR5 cells after 48 hrs by SRB assay; type: functional; details: OVCAR-5, 48 h
[28] = Growth inhibition of human SF295 cells after 48 hrs by SRB assay; type: functional; details: SF-295, 48 h
MCF7 = test: Growth inhibition of human MCF7 cells after 48 hrs by SRB assay; type: functional; details: MCF7, 48 h
[29] = Growth inhibition of human OVCAR3 cells after 48 hrs by SRB assay; type: functional; details: OVCAR-3, 48 h
[30] = Growth inhibition of human HCT116 cells after 48 hrs by SRB assay; type: functional; details: HCT-116, 48 h
CCRF-CEM [31] = test: Growth inhibition of human CCRF-CEM cells after 48 hrs by SRB assay; type: functional
SK-MEL-28 = test: Growth inhibition of human SK-MEL-28 cells after 48 hrs by SRB assay; type: functional; details: SK-MEL-28, 48 h
[32] = Growth inhibition of human LOXIMVI cells after 48 hrs by SRB assay; type: functional; details: LOX IMVI

For `COc1ccc(C(=O)c2ccc3c(c2)Sc2cc(C(=O)c4ccc(OC)c(F)c4)ccc2N3C)cc1F`, the inhibition of growth at 10 µM [1] was 0%, the inhibition of growth at 10 µM [2] was 2% and the inhibition of growth at 10 µM [3] was 0%. For the same compound, the inhibition of growth at 10 µM [4] was 6%, the inhibition of growth at 10 µM [5] was 0% and the inhibition of growth at 10 µM [6] was 0%. For the same compound, the inhibition of growth at 10 µM (SR) was 4%, the inhibition of growth at 10 µM [7] was 0% and the inhibition of growth at 10 µM [8] was 0%. The inhibition of growth at 10 µM (A498) was 5%, the inhibition of growth at 10 µM (SK-MEL-5 [9]) was 4% and the inhibition of growth at 10 µM (KM12) was 0%. For the same compound, the inhibition of growth at 10 µM (CCRF-CEM [10]) was 0%, the inhibition of growth at 10 µM (SN12C [11]) was 2% and the inhibition of growth at 10 µM (HT-29) was 5%. The inhibition of growth at 10 µM [12] was 11%, the inhibition of growth at 10 µM [13] was 2% and the inhibition of growth at 10 µM [14] was 7%. It also gave an inhibition of growth at 10 µM [15] of 0%, an inhibition of growth at 10 µM [16] of 17% and an inhibition of growth at 10 µM (Malme-3M) of 5%.

`O=C(c1ccc(F)c(Cl)c1)N1c2ccccc2Sc2ccccc21` gave an inhibition of growth at 10 µM [1] of 33%, an inhibition of growth at 10 µM [2] of 29% and an inhibition of growth at 10 µM [3] of 73%. It also gave an inhibition of growth at 10 µM [4] of 38%, an inhibition of growth at 10 µM [5] of 20% and an inhibition (Ovis aries) of 42%. The inhibition of growth at 10 µM [6] was 66%, the inhibition of growth at 10 µM (SR) was 66% and the inhibition of growth at 10 µM (MDA-MB-231) was 39%. For the same compound, the inhibition of growth at 10 µM [7] was 60%, the inhibition of growth at 10 µM [8] was 69% and the inhibition of growth at 10 µM (A498) was 38%. It also gave an inhibition of growth at 10 µM (SK-MEL-5 [9]) of 66%, an inhibition of growth at 10 µM (KM12) of 60% and an inhibition of growth at 10 µM (CCRF-CEM [10]) of 42%. For the same compound, the inhibition of growth at 10 µM (SN12C [11]) was 1%, the inhibition of growth at 10 µM (HT-29) was 64% and the inhibition of growth at 10 µM [12] was 39%. For the same compound, the inhibition of growth at 10 µM [13] was 31%, the inhibition of growth at 10 µM [14] was 15% and the inhibition of growth at 10 µM [15] was 56%. The inhibition of growth at 10 µM [16] was 21% and the inhibition of growth at 10 µM (Malme-3M) was 36%.

With `COc1ccc(C(=O)c2ccc3c(c2)Sc2ccccc2N3C)cc1F` the inhibition of growth at 10 µM [1] was 2%, the inhibition of growth at 10 µM [2] was 11% and the inhibition of growth at 10 µM [3] was 36%. For the same compound, the inhibition of growth at 10 µM [4] was 19%, the inhibition of growth at 10 µM [5] was 10% and the inhibition of growth at 10 µM [6] was 27%. It also gave an inhibition of growth at 10 µM (SR) of 32%, an inhibition of growth at 10 µM [7] of 32% and an inhibition of growth at 10 µM [8] of 0%. The inhibition of growth at 10 µM (A498) was 45%, the inhibition of growth at 10 µM (SK-MEL-5 [9]) was 13% and the inhibition of growth at 10 µM (KM12) was 30%. The inhibition of growth at 10 µM (CCRF-CEM [10]) was 12%, the inhibition of growth at 10 µM (SN12C [11]) was 13% and the inhibition of growth at 10 µM (HT-29) was 30%. The inhibition of growth at 10 µM [12] was 8%, the inhibition of growth at 10 µM [13] was 1% and the inhibition of growth at 10 µM [14] was 8%. The inhibition of growth at 10 µM [15] was 17%, the inhibition of growth at 10 µM [16] was 7% and the inhibition of growth at 10 µM (Malme-3M) was 24%.

In the case of `COc1ccc(C(=O)N2c3ccccc3Sc3ccccc32)c(C(F)(F)F)c1`, the GI50 [17] is reported as 264 nM, the GI50 [18] is reported as 438 nM and the inhibition of growth at 10 µM [1] is reported as 65%. The inhibition of growth at 10 µM [2] was 85%, the GI50 (U-251) was 500 nM and the GI50 (SK-MEL-5 [19]) was 692 nM. It also gave a GI50 [20] of 152 nM, a GI50 [21] of 794 nM and a GI50 (MDA-MB-468) of 364 nM. It also gave a GI50 [22] of 467 nM, a GI50 (SN12C [23]) of 1300 nM and an inhibition of growth at 10 µM [3] of 82%. The inhibition of growth at 10 µM [4] was 100%, the inhibition of growth at 10 µM [5] was 53% and the inhibition (Ovis aries) was 80%. The GI50 [24] was 406 nM, the GI50 [25] was 319 nM and the GI50 [26] was 595 nM. The inhibition of growth at 10 µM [6] was 75%, the inhibition of growth at 10 µM (SR) was 84% and the inhibition of growth at 10 µM (MDA-MB-231) was 76%. The GI50 (K562) was 349 nM, the inhibition of growth at 10 µM [7] was 97% and the inhibition of growth at 10 µM [8] was 98%. The inhibition of growth at 10 µM (A498) was 91%, the inhibition of growth at 10 µM (SK-MEL-5 [9]) was 95% and the inhibition of growth at 10 µM (KM12) was 82%. For the same compound, the inhibition of growth at 10 µM (CCRF-CEM [10]) was 78%, the inhibition of growth at 10 µM (SN12C [11]) was 60% and the GI50 (NCI-H460) was 383 nM. For the same compound, the GI50 [27] was 1610 nM, the GI50 [28] was 372 nM and the inhibition of growth at 10 µM (HT-29) was 97%. The inhibition of growth at 10 µM [12] was 38%, the inhibition of growth at 10 µM [13] was 71% and the GI50 (MCF7) was 411 nM. It also gave an inhibition of growth at 10 µM [14] of 43%, an inhibition of growth at 10 µM [15] of 85% and a GI50 [29] of 332 nM. The inhibition of growth at 10 µM [16] was 76%, the GI50 [30] was 505 nM and the GI50 (CCRF-CEM [31]) was 88 nM. For the same compound, the GI50 (SK-MEL-28) was 9170 nM, the inhibition of growth at 10 µM (Malme-3M) was 40% and the GI50 [32] was 516 nM.
